Data published in patent US12227495B2, “Herbicidal compounds” (SYNGENTA CROP PROTECTION AG, priority 2018, dated 2025).

Key:
Format in all cases: in vivo
[1] = tested on: Echinochloa crus-galli (ECHCG); assay: Post-emergence herbicide test, glasshouse, percentage damage; details: 1000 g/ha, evaluated after 13 days
In short: (§1)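 Seeds sown in pots; cultured 1 day (pre-emergence) or 8 days (post-emergence) in a controlled glasshouse; then sprayed with the active in acetone/water 50:50 plus 0.5% Tween 20 at 500 g/ha unless noted; grown on 13 days; damage assessed and banded into five classes.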

[2] = tested on: Amaranthus retoflexus (AMARE); assay: as above; details: 1000 g/ha, evaluated after 13 days
In short: as §1

[3] = tested on: Solanum nigrum (SOLNI); assay: as above; details: 1000 g/ha, evaluated after 13 days
In short: as §1

[4] = tested on: Lolium perenne (LOLPE); assay: as above; details: 1000 g/ha, evaluated after 13 days
In short: as §1

[5] = tested on: Setaria faberi (SETFA); assay: as above; details: 1000 g/ha, evaluated after 13 days
In short: as §1

[6] = tested on: Ipomoea hederacea (IPOHE); assay: as above; details: 1000 g/ha, evaluated after 13 days
In short: as §1

[7] = tested on: Echinochloa crus-galli (ECHCG); assay: Pre-emergence herbicide test, glasshouse, percentage damage; details: rate 1000 g/ha, evaluated after 13 days
In short: as §1

[8] = tested on: Amaranthus retoflexus (AMARE); assay: as above; details: rate 1000 g/ha, evaluated after 13 days
In short: as §1

[9] = tested on: Solanum nigrum (SOLNI); assay: as above; details: rate 1000 g/ha, evaluated after 13 days
In short: as §1

[10] = tested on: Lolium perenne (LOLPE); assay: as above; details: rate 1000 g/ha, evaluated after 13 days
In short: as §1

[11] = tested on: Setaria faberi (SETFA); assay: as above; details: rate 1000 g/ha, evaluated after 13 days
In short: as §1

[12] = tested on: Ipomoea hederacea (IPOHE); assay: as above; details: rate 1000 g/ha, evaluated after 13 days
In short: as §1

SMILES | percentage damage caused to the plant, ECHCG [1] | percentage damage caused to the plant, AMARE [2] | percentage damage caused to the plant, SOLNI [3] | percentage damage caused to the plant, LOLPE [4] | percentage damage caused to the plant, SETFA [5] | percentage damage caused to the plant, IPOHE [6] | Pre-emergence Test ECHCG percentage damage (five point scale) [7] | Pre-emergence Test AMARE percentage damage (five point scale) [8] | Pre-emergence Test SOLNI percentage damage (five point scale) [9] | Pre-emergence Test LOLPE percentage damage (five point scale) [10] | Pre-emergence Test SETFA percentage damage (five point scale) [11] | Pre-emergence Test IPOHE percentage damage (five point scale) [12]
FC(F)c1cc(-c2c(Cl)cccc2Oc2ccc(Br)cn2)on1 [Compound A119] | 4 (4=61-80%) | 5 (5=81-100%) | 5 (5=81-100%) | 5 (5=81-100%) | 5 (5=81-100%) | 5 (5=81-100%) | 5 (5=81-100%) | 5 (5=81-100%) | 4 (4=61-80%) | 5 (5=81-100%) | 5 (5=81-100%) | 4 (4=61-80%)
N#Cc1cccnc1Oc1cccc(Cl)c1-c1cc(C(F)F)no1 [Compound A120] | 4 (4=61-80%) | 5 (5=81-100%) | 5 (5=81-100%) | 3 (3=41-60%) | 5 (5=81-100%) | 4 (4=61-80%) | 5 (5=81-100%) | 5 (5=81-100%) | 4 (4=61-80%) | 2 (2=21-40%) | 5 (5=81-100%) | 3 (3=41-60%)
Fc1cc(Cl)cnc1Oc1ccccc1-n1ccc(C(F)(F)F)n1 [Compound A121] | 3 (3=41-60%) | 4 (4=61-80%) | 4 (4=61-80%) | 1 (1=0-20%) | 3 (3=41-60%) | 2 (2=21-40%) | 4 (4=61-80%) | 4 (4=61-80%) | 1 (1=0-20%) | 1 (1=0-20%) | 3 (3=41-60%) | 1 (1=0-20%)
Fc1cc(Cl)cnc1Oc1cccc(Cl)c1-n1cc(C(F)(F)F)cn1 [Compound A159] | 3 (3=41-60%) | 5 (5=81-100%) | 5 (5=81-100%) | 4 (4=61-80%) | 5 (5=81-100%) | 4 (4=61-80%) | 5 (5=81-100%) | 5 (5=81-100%) | 5 (5=81-100%) | 5 (5=81-100%) | 5 (5=81-100%) | 2 (2=21-40%)
N#Cc1cccc(Oc2ncc(F)cc2F)c1-c1cc(C(F)F)no1 [Compound A160] | 5 (5=81-100%) | 5 (5=81-100%) | 5 (5=81-100%) | 5 (5=81-100%) | 5 (5=81-100%) | 5 (5=81-100%) | 5 (5=81-100%) | 5 (5=81-100%) | 4 (4=61-80%) | 5 (5=81-100%) | 5 (5=81-100%) | 5 (5=81-100%)
N#Cc1cccc(Oc2ccc(Cl)cn2)c1-c1cc(C(F)F)no1 [Compound A161] | 5 (5=81-100%) | 5 (5=81-100%) | 5 (5=81-100%) | 5 (5=81-100%) | 5 (5=81-100%) | 5 (5=81-100%) | 5 (5=81-100%) | 5 (5=81-100%) | 4 (4=61-80%) | 5 (5=81-100%) | 5 (5=81-100%) | 5 (5=81-100%)
